Experimental data as given in patent US20040127519A1 (Pharmacia Corporation, priority 2002, published 2004).

Each compound was assayed against Recombinant MAPKAPK2 (Homo sapiens, UniProt P49137) (assay: Determination of MK-2 IC50 (HSP-peptide phosphorylation, anion exchange resin capture assay)). Conditions: MK-2 Avg. IC50, Table 2, tricyclic aminocyanopyridine MK-2 inhibitors.
Chain of Recombinant MAPKAPK2 (P49137 whole entry, species assumed): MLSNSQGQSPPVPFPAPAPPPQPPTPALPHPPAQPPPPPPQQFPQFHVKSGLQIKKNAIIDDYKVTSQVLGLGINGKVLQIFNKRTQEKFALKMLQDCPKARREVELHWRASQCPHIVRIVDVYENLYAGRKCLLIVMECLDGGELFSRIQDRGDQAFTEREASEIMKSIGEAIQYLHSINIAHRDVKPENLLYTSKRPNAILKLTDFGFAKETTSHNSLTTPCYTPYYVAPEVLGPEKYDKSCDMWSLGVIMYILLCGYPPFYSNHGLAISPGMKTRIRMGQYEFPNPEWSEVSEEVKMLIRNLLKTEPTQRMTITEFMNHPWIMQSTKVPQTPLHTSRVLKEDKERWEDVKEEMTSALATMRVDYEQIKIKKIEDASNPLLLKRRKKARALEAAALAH
Format: biochemical
Protocol: The phosphorylation of HSP-peptide ([…]) by MAPKAPK2 was measured using an anion exchange resin capture assay method. […] The reaction was terminated and [γ^33P]ATP was removed from solution by the addition of 150 μl of AG 1×8 ion exchange resin in 900 mM sodium formate pH 3.0. A 50 μl aliquot of head volume was removed from the quenched reaction mixture and added to a 96-well plate, 150 μl of Microscint-40 (Packard) was added and the amount of phosphorylated-peptide was determined. Allow the Microscint to sit in the plates for 60 minutes prior to counting.
Compounds are evaluated as potential inhibitors of the MK2 kinase by measuring their effects on MK2 phosphorylation of the peptide substrate. Compounds may be screened initially at two concentrations prior to determination of IC50 values. Screening results are expressed as percent inhibition at the concentrations of compound tested. For IC50 value determinations, compounds are tested at six concentrations in ten-fold serial dilutions with each concentration tested in triplicate. Results are expressed as IC50 values in micromolar. The assay is performed at a final concentration of 2% DMSO.
COc1cc2c(cc1OC)Oc1nc(N)c(C#N)c(NCCN(C)C)c1C2 [Example 63] gave an IC50 of 79.1 µM. With N#Cc1c(N)nc2c(c1N)Cc1cc([N+](=O)[O-])ccc1S2(=O)=O [Example 64] the IC50 was 80.8 µM. Work on N#Cc1c(N)nc2c(c1N)Cc1cc(-c3ccccc3)ccc1O2 [Example 65] yielded an IC50 of 83.8 µM. With Cc1cc(Cl)cc2c1Oc1nc(N)c(C#N)c(N)c1C2 [Example 66] the IC50 was 136 µM. CCNc1nc2c(c(NCC)c1C#N)Cc1ccc(OCC)cc1O2 [Example 68] gave an IC50 of 148 µM. With COc1ccc2c(c1)Oc1nc(N)c(C#N)c(N)c1C2c1ccccc1F (stereo not shown) [Example 69] the IC50 was 151 µM. For N#Cc1c(N)nc2c(c1N)Cc1cccc(OCCO)c1O2 [Example 70], the IC50 was 154 µM. Work on N#Cc1c(N)nc2c(c1N)Cc1cccc(OCCN)c1O2 [Example 71] yielded an IC50 of 161 µM.

Same assay, conditions: MK-2 Avg. IC50, Table I, aminocyanopyridine MK-2 inhibitors
COc1ccc(Nc2c(C#N)c(N)nc3c2CC(C(F)(F)F)O3)cc1 (stereo not shown) [Example 63] gave an IC50 of 36.4 µM. CC(C)(C)NS(=O)(=O)c1ccc(-c2cc(-c3ccco3)c(C#N)c(N)n2)cc1 [Example 64] was tested, and the IC50 was 36.4 µM. In the case of CCC1Cc2c(nc(N)c(C#N)c2N)O1 (stereo not shown) [Example 65], the IC50 is reported as 37.9 µM. With N#Cc1c(-c2ccco2)cc(-c2ccncc2)nc1N [Example 66] the IC50 was 39.9 µM. Compound CSc1cc(N)c(C#N)c(N)n1 [Example 67] has an IC50 of 41.6 µM. N#Cc1c(N)nc2c(c1-c1cccc(C(=O)O)c1)CCc1[nH]ncc1-2 [Example 68] showed an IC50 of 41.7 µM. N#Cc1c(-c2cnc[nH]2)cc(-c2ccc(Cl)cc2)nc1N [Example 69] showed an IC50 of 42.9 µM. With N#Cc1c(N)nc2c(c1-c1cccc3c1OCO3)CCc1[nH]ncc1-2 [Example 70] the IC50 was 43.2 µM. Work on CC1Cc2c(nc(N)c(C#N)c2N)O1 (stereo not shown) [Example 71] yielded an IC50 of 44.1 µM. Work on CS(=O)(=O)c1ccc(-c2cc(-c3cnc[nH]3)c(C#N)c(N)n2)cc1 [Example 72] yielded an IC50 of 45.3 µM. For N#Cc1c(N)nc2ccccc2c1N [Example 73], the IC50 was 45.5 µM. In the case of N#Cc1c(N)nc2c(c1-c1ccco1)CCc1cc(N)ccc1-2 [Example 74], the IC50 is reported as 46.8 µM. N#Cc1c(-c2ccco2)cc(-c2ccco2)nc1N [Example 75] was tested, and the IC50 was 47.6 µM. In the case of N#Cc1c(-c2c[nH]c(C(=O)O)c2)cc(-c2ccco2)nc1N [Example 76], the IC50 is reported as 48.7 µM. CCCCC1Cc2c(nc(N)c(C#N)c2N)O1 (stereo not shown) [Example 77] was tested, and the IC50 was 49.1 µM. CCOC(=O)c1ccc(-c2cc(-c3cnc[nH]3)c(C#N)c(N)n2)cc1 [Example 78] gave an IC50 of 49.1 µM. COc1cc(N)c(C#N)c(N)n1 [Example 79] gave an IC50 of 50.9 µM. N#Cc1ccc(-c2c(C#N)c(N)nc3c2CCc2[nH]ncc2-3)cc1 [Example 81] was tested, and the IC50 was 52.1 µM. Cn1cccc1-c1cc(-c2ccco2)c(C#N)c(N)n1 [Example 83] was tested, and the IC50 was 54.4 µM. N#Cc1c(-c2ccc(Oc3ccccc3)cc2)cc(-c2ccco2)nc1N [Example 85] was tested, and the IC50 was 59.3 µM. N#Cc1c(N)nc2c(c1-c1cccnc1)CCc1n[nH]cc1-2 [Example 86] gave an IC50 of 62.5 µM. Compound N#Cc1c(N)nc(SCC(=O)c2ccc(Cl)cc2)c(C#N)c1-c1ccco1 [Example 87] has an IC50 of 63.3 µM. Compound CC(C)(C)NS(=O)(=O)c1ccc(-c2cc(-c3ccccc3)c(C#N)c(N)n2)cc1 [Example 90] has an IC50 of 68 µM. Compound COc1ccnc(N)c1C#N [Example 91] has an IC50 of 69.6 µM. In the case of N#Cc1c(-c2ccc(C(=O)O)cc2)cc(-c2ccco2)nc1N [Example 92], the IC50 is reported as 59.8 µM. In the case of COc1ccc(OCC2Cc3c(nc(N)c(C#N)c3N)O2)cc1 (stereo not shown) [Example 93], the IC50 is reported as 69.8 µM. COc1ccc(-c2cc(-c3ccccc3F)c(C#N)c(N)n2)cc1 [Example 94] showed an IC50 of 70.4 µM. In the case of CC(C)(C)NS(=O)(=O)c1ccc(-c2cc(-c3ccccc3F)c(C#N)c(N)n2)cc1 [Example 95], the IC50 is reported as 71.5 µM. For N#Cc1c(N)nc2c(c1N)Cc1cccc(OCC(=O)O)c1O2 [Example 96], the IC50 was 72.2 µM. N#Cc1ccc(-c2ccco2)nc1N [Example 98] showed an IC50 of 77.5 µM. N#Cc1c(N)nc2c(c1-c1ccco1)CCc1c(O)cccc1-2 [Example 101] was tested, and the IC50 was 82.6 µM. N#Cc1c(-c2ccco2)cc(-c2c[nH]c3ccccc23)nc1N [Example 102] gave an IC50 of 87.1 µM. In the case of N#Cc1c(N)nc2c(c1-c1ccncc1)CCc1n[nH]cc1-2 [Example 103], the IC50 is reported as 94.3 µM. In the case of N#Cc1c(-c2cccc(F)c2)cc(-c2ccc(O)cc2)nc1N [Example 104], the IC50 is reported as 96 µM. With N#Cc1c(N)nc2c(c1-c1ccccc1OC(F)F)CCc1[nH]ncc1-2 [Example 105] the IC50 was 96.1 µM. In the case of N#Cc1c(-c2ccco2)cc(-c2ccsc2)nc1N [Example 106], the IC50 is reported as 97.3 µM. Work on COc1ccc(-c2cc(-c3cccc(F)c3)c(C#N)c(N)n2)cc1 [Example 107] yielded an IC50 of 97.3 µM. With N#Cc1c(-c2ccccc2B(O)O)cc(-c2ccco2)nc1N [Example 108] the IC50 was 99.6 µM. With CCCc1nc(N)c(C#N)c(N)c1C#N [Example 109] the IC50 was 99.8 µM. C#CCOCC1Cc2c(nc(N)c(C#N)c2N)O1 (stereo not shown) [Example 110] showed an IC50 of 105 µM. N#Cc1c(N)nc2c(c1N)CC(CO)O2 (stereo not shown) [Example 111] gave an IC50 of 106 µM. For N#Cc1c(-c2ccc(C(F)(F)F)cc2)cc(-c2ccco2)nc1N [Example 112], the IC50 was 107 µM. Work on CC1(C)Cc2n[nH]cc2-c2nc(N)c(C#N)c(-c3ccco3)c21 [Example 114] yielded an IC50 of 109 µM. N#Cc1c(-c2ccccc2F)cc(-c2ccco2)nc1NCC(=O)O [Example 115] was tested, and the IC50 was 114 µM. C=CCOCC1Cc2c(nc(N)c(C#N)c2N)O1 (stereo not shown) [Example 116] was tested, and the IC50 was 118 µM. In the case of CC1Cc2c(nc(N)c(C#N)c2-c2ccco2)-c2ccccc21 (stereo not shown) [Example 117], the IC50 is reported as 119 µM. COCC1Cc2c(nc(N)c(C#N)c2N)O1 (stereo not shown) [Example 118] was tested, and the IC50 was 119 µM. For N#Cc1c(-c2ccco2)cc(-c2c[nH]c3ccccc23)nc1N [Example 119], the IC50 was 120 µM. For N#Cc1c(-c2ccco2)cc(-c2ccc(-n3ccnc3)cc2)nc1N [Example 120], the IC50 was 121 µM. For N#Cc1c(-c2ccco2)cc(-c2ccc(O)cc2)nc1N [Example 121], the IC50 was 122 µM. In the case of N#Cc1c(N)nc2c(c1-c1ccco1)C1CCC2C1 (stereo not shown) [Example 122], the IC50 is reported as 122 µM. For CC(C)OCC1Cc2c(nc(N)c(C#N)c2N)O1 (stereo not shown) [Example 123], the IC50 was 125 µM. For N#Cc1c(-c2ccco2)cc(-c2cccc(B(O)O)c2)nc1N [Example 124], the IC50 was 126 µM. N#Cc1c(-c2ccc(Br)cc2)cc(-c2ccco2)nc1N [Example 126] was tested, and the IC50 was 130 µM. N#Cc1c(N)nc2c(c1N)CC(COC(F)(F)C(F)F)O2 (stereo not shown) [Example 127] showed an IC50 of 131 µM. In the case of N#Cc1c(-c2ccc(C(F)(F)F)cc2F)cc(-c2ccco2)nc1N [Example 128], the IC50 is reported as 133 µM. COc1ccccc1-c1c(C#N)c(N)nc2c1CCc1n[nH]cc1-2 [Example 129] gave an IC50 of 136 µM. Compound CC1Cc2n[nH]cc2-c2nc(N)c(C#N)c(-c3ccccc3F)c21 (stereo not shown) [Example 130] has an IC50 of 142 µM. CCc1c(C#N)c(N)nc2[nH]nc(N)c12 [Example 131] showed an IC50 of 146 µM. Compound N#Cc1c(-c2ccco2)cc(-c2ccccn2)nc1N [Example 132] has an IC50 of 149 µM. In the case of N#Cc1c(-c2ccco2)cc(-c2cccc3cccc(O)c23)nc1N [Example 133], the IC50 is reported as 153 µM. N#Cc1c(N)nc2c(c1-c1ccc(C(=O)O)cc1)CCc1[nH]ncc1-2 [Example 134] showed an IC50 of 155 µM. N#Cc1c(-c2ccco2)cc(-c2ccc(Cl)c(Cl)c2)nc1N [Example 135] gave an IC50 of 156 µM. N#Cc1c(-c2ccco2)cc(-c2ccc3c(c2)Nc2ccccc2S3)nc1N [Example 136] showed an IC50 of 158 µM. For N#Cc1c(N)nc2ccccc2c1C(=O)O [Example 137], the IC50 was 161 µM. N#Cc1c(-c2ccccc2F)cc(-c2ccco2)nc1Nc1ccccc1 [Example 138] gave an IC50 of 162 µM. Compound N#Cc1c(-c2cccc(F)c2)cc(-c2ccco2)nc1N [Example 139] has an IC50 of 164 µM. N#Cc1c(-c2ccc(F)cc2)cc(-c2ccco2)nc1N [Example 140] was tested, and the IC50 was 165 µM. Compound CC(C)(C)OCC1Cc2c(nc(N)c(C#N)c2N)O1 (stereo not shown) [Example 141] has an IC50 of 167 µM. N#Cc1c(-c2ccco2)cc(-c2nccs2)nc1N [Example 142] was tested, and the IC50 was 167 µM. N#Cc1c(-c2ccccc2F)cc(-c2ccco2)nc1N1CCCCC1 [Example 143] showed an IC50 of 176 µM. N#Cc1c(-c2ccco2)cc(-c2ccc(Cl)cc2)nc1N [Example 144] showed an IC50 of 182 µM. COc1ccccc1-c1cc(-c2ccc(O)cc2)nc(N)c1C#N [Example 145] showed an IC50 of 183 µM. N#Cc1c(-c2ccccc2O)cc(-c2ccco2)nc1N [Example 146] showed an IC50 of 185 µM. For COC(=O)c1cccc(-c2c(C#N)c(N)nc3c2CCc2[nH]ncc2-3)c1 [Example 147], the IC50 was 191 µM. Compound Cc1ccc(-c2cc(-c3ccccc3Cl)c(C#N)c(N)n2)o1 [Example 148] has an IC50 of 192 µM. COC(=O)c1ccc(-c2cc(-c3ccco3)c(C#N)c(N)n2)cc1 [Example 150] was tested, and the IC50 was 199 µM.
